Reference: patent US9028856B2, “Synergistic pesticide compositions” (priority 2008, dated 2015)

Columns and labels:
[1] = tested on: bait averse/resistant German cockroach (T-164 strain); experiment: Knockdown/mortality of male cockroaches under continuous exposure on treated glazed tile; format: in vivo, Blattella germanica; details: German cockroach T-164, treated glazed tile
[2] = tested on: Argentine ant, Linepithema humile; experiment: Knockdown/mortality of ant workers under continuous exposure on treated glazed tile; details: Argentine ant, treated glazed tile
Method: (§1) Solutions of imidacloprid at 0.5% AI were prepared with and without methyl oleate @0.1, 1.0 and 5.0% in acetone. Treatments were applied using a micropipette to dispense 1 ml of test solution evenly on a 6″×6″ glazed tile. Actual coverage was about 5″×5″ (or 161 cm^2) for easy handling. Treatments were allowed to dry overnight. Ten Argentine ant workers were placed within a fluon or talc-coated PVC ring (φ7.6 cm×H 5.1 cm) under continuous exposure. A small vial filled with a cotton ball soaked in water was added as a drinking source after 3 hours. Treatments were replicated a minimum of three times. Evaluations for ant knockdown/mortality were made at various intervals and at 24 hours after exposure.
as §1, with “MATERIALS AND METHODS: Solutions” for “Solutions”, “linoleate” for “oleate”
as §1, with “MATERIALS AND METHODS: Solutions of” for “Solutions of”, “without methyl palmitate @0.1, 1.0” for “without methyl oleate @0.1, 1.0”, “after exposure. […]” for “after exposure.”

[3] = tested on: Aedes aegypti mosquito; experiment: USDA Petri Dish Method, 3 min exposure to treated glazed tile; format: in vivo; details: Aedes aegypti
Method: (§2) Treatments were allowed to dry overnight. USDA Petri Dish Method was used as initial screening protocol. Twenty, 4-6 day old female Aedes aegypti mosquitoes were exposed to each treatment for 3 minutes and then moved to a clean untreated white paper index card. Treatments were replicated a minimum of three times. Mosquito knockdown was evaluated at various intervals through 7 hours after exposure. A small cotton ball soaked in sucrose solution was added on the screen top of the petri-dish as a drinking source. Mortality was evaluated at 24 hours after exposure.
MATERIALS AND METHODS: Solutions of resmethrin at 1 and 0.5% AI were prepared with and without adjuvant in acetone. […] USDA Petri Dish Method was used as initial screening protocol. Twenty, 4-6 day old female Aedes aegypti mosquitoes were exposed to each treatment for 3 minutes and then moved to a clean untreated white paper index card. Treatments were replicated a minimum of three times. Mosquito knockdown was evaluated at 3 minute intervals for the first 15 minutes and then at 5 minute intervals for the remainder of an hour. A small cotton ball soaked in sucrose solution was added on the screen top of the petri-dish as a drinking source. Mortality was evaluated at 24 hours after exposure.
as §2, with “6” for “7”
as §2, with “5 minute” for “various”, “for the first hour and then at 2, 4 and 6 hours.” for “through 7 hours after exposure.”
Treatments were allowed to dry overnight. USDA Petri Dish Method was used as initial screening protocol. Twenty, 4-6 day old female Aedes aegypti mosquitoes were exposed to each treatment for 3 minutes and then moved to a clean untreated white paper index card. Treatments were replicated a minimum of three times. Mosquito knockdown was evaluated at 3-5 minute intervals for the first hour. A small cotton ball soaked in sucrose solution was then added on the screen top of the petri-dish as a drinking source. Mortality was evaluated at 24 hours after exposure.
as §2, with “intervals through 2 hours after” for “intervals through 7 hours after”, “solution was then added on” for “solution was added on”
Treatments were allowed to dry overnight. USDA Petri Dish Method was used as initial screening protocol. Twenty, 4-6 day old female Aedes aegypti mosquitoes were exposed to each treatment for 3 minutes and then moved to a clean untreated white paper index card. Treatments were replicated a minimum of three times. Mosquito knockdown was evaluated at various hourly intervals. […]

[4] = tested on: Aedes aegypti mosquito; experiment: USDA Petri Dish Method, 3 min exposure to dipped fiberglass window screen; format: in vivo; details: dipped screen, 3 min exposure
Method: MATERIALS AND METHODS: Aqueous solutions of 1% deltamethrin with and without an adjuvant composition, which is sold under the tradename Suspend® SC. […] Pre-cut fiberglass screen (5″×5″, or 161.3 cm^2) were dipped in each treatment solution and excessive solution was allowed to drain completely (see FIG. 23 a). Weight of the solution coated on the screen was then determined. The treated screen was then allowed to air-dry overnight. USDA Petri Dish Method was used as initial screening protocol (see FIG. 23 b). Twenty, 4-6 day old female Aedes aegypti were exposed to treated window screen for 3 minutes and then moved onto a clean untreated white paper index card. Treatments were replicated a minimum of three times. Mosquito knockdown was evaluated at 3 minute intervals for the first 15 minutes and then at 5 minute intervals for the remainder of an hour. A small cotton ball with sucrose solution was added on the screen top of the Petri dish as a drinking source. Mortality was evaluated at 24 hours after exposure.
MATERIALS AND METHODS: Several rates of permethrin without adjuvant were prepared using product sold under the tradename Permanone® 40 to determine an effective rate against Aedes aegypti mosquitoes. After determining an effective rate range, aqueous solutions of permethrin at 1.25, 1.0 and 0.05% AI were prepared with and without adjuvant. […] Pre-cut fiberglass screens (5″×5″ or 161.3 cm^2) were dipped in each treatment solution allowing excessive solution to drain completely. Weight of the solution coated on the screen was then determined. The treated screen was then allowed to air-dry overnight. USDA Petri Dish Method was used as initial screening protocol (see photo, right). Twenty, 4-6 day old female Aedes aegypti were exposed to treated window screen for 3 minutes and then moved to a clean untreated white paper index card. Treatments were replicated a minimum of three times. Mosquito knockdown was evaluated at 3 minute intervals for the first 15 minutes and then at 5 minute intervals for the remainder of an hour. A small cotton ball with sucrose solution was added on the screen top of the petri-dish as a drinking source. Mortality was evaluated at 24 hours after exposure.

[5] = Table 56, glazed tile, 3 min exposure
[6] = Table 56, glazed tile, 3 min exposure, adjuvant = Compound A 1% + Compound B 0.5%
[7] = Table 39, permethrin without adjuvant (Permanone 40)
[8] = Table 40, aqueous permethrin/adjuvant

| Structure (SMILES) | Average % Knockdown & Mortality after 3 min [4, 7] | Average % Knockdown & Mortality after 9 min [4, 7] | Average % Knockdown & Mortality after 15 min [4, 7] | Average % Knockdown & Mortality after 30 min [4, 7] | Average % Knockdown & Mortality after 60 min [4, 7] | Average % Knockdown & Mortality after 24 hr [4, 7] | further results |
| --- | --- | --- | --- | --- | --- | --- | --- |
| CCCCOC(=O)CCCCCCCCC(=O)OCCCC [DBS, dibutyl sebacate] |  |  |  |  |  |  | toxicity / efficacy of the substance alone (summary in words) [1]: not toxic to German cockroaches, except at its highest rate (5%); toxicity / efficacy of the substance alone (summary in words) [2]: toxic to the Argentine ants, and the lower rates (0.1 & 1.0%) of DBS showed delayed toxicity |
| CC[S+]([O-])c1c(C#N)nn(-c2c(Cl)cc(C(F)(F)F)cc2Cl)c1N (centres unmarked) [Ethiprole (.01%)] |  |  |  |  |  |  | Average % Knockdown & Mortality after 4 hr [3, 5]: 2%; Average % Knockdown & Mortality after 6 hr [3, 5]: 12%; Average % Knockdown & Mortality after 24 hr [3, 5]: 17%; Average % Knockdown & Mortality after 2 hr [3, 6]: 0% |
| CN/C(=N\[N+](=O)[O-])NCc1cnc(Cl)s1 [Clothianidin (1%)] |  |  |  |  |  |  | Average % Knockdown & Mortality after 1 hr ([3]; Table 78, clothianidin study, glazed tile, 3 min exposure, adjuvant = Compound A 1% + Compound B 0.5%, 1 hr): 0%; Average % Knockdown & Mortality after 2 hr ([3]; Table 78, clothianidin study): 0%; Average % Knockdown & Mortality after 4 hr ([3]; Table 78, clothianidin study): 0%; Average % Knockdown & Mortality after 24 hr ([3]; Table 78, clothianidin study): 0% |
| CC1(C)C(C=C(Cl)Cl)C1C(=O)OCc1cccc(Oc2ccccc2)c1 (centres unmarked) [Permethrin (5%)] | 75% | 100% | 100% | 100% | 100% | 100% |  |
| CC1(C)C(C=C(Cl)Cl)C1C(=O)OCc1cccc(Oc2ccccc2)c1 (centres unmarked) [Permethrin (1.0%)] | 0% | 2% | 2% | 5% | 18% | 34% | Average % Knockdown & Mortality after 3 min [4, 8]: 2%; Average % Knockdown & Mortality after 9 min [4, 8]: 2%; Average % Knockdown & Mortality after 15 min [4, 8]: 2%; Average % Knockdown & Mortality after 30 min [4, 8]: 4%; Average % Knockdown & Mortality after 60 min [4, 8]: 13%; Average % Knockdown & Mortality after 24 hr [4, 8]: 28% |
| CC1(C)C(C=C(Cl)Cl)C1C(=O)OCc1cccc(Oc2ccccc2)c1 (centres unmarked) [Permethrin (1.25%)] | 46% | 71% | 71% | 72% | 79% | 82% | Average % Knockdown & Mortality after 3 min [4, 8]: 0%; Average % Knockdown & Mortality after 9 min [4, 8]: 0%; Average % Knockdown & Mortality after 15 min [4, 8]: 2%; Average % Knockdown & Mortality after 30 min [4, 8]: 2%; Average % Knockdown & Mortality after 60 min [4, 8]: 3%; Average % Knockdown & Mortality after 24 hr [4, 8]: 7% |
| CC1(C)C(C=C(Cl)Cl)C1C(=O)OCc1cccc(Oc2ccccc2)c1 (centres unmarked) [Permethrin (1.75%)] | 40% | 95% | 100% | 100% | 100% | 100% |  |
| CC1(C)C(C=C(Cl)Cl)C1C(=O)OCc1cccc(Oc2ccccc2)c1 (centres unmarked) [Permethrin (0.1%)] | 0% | 0% | 0% | 0% | 0% | 5% |  |
| CC1(C)C(C=C(Cl)Cl)C1C(=O)OCc1cccc(Oc2ccccc2)c1 (centres unmarked) [Permethrin (1.5%)] | 0% | 0% | 2% | 2% | 3% | 16% |  |
| CC1(C)C(C=C(Cl)Cl)C1C(=O)OCc1cccc(Oc2ccccc2)c1 (centres unmarked) [Permethrin (2.5%)] | 56% | 100% | 100% | 100% | 100% | 100% |  |
| CC[S+]([O-])c1c(C#N)nn(-c2c(Cl)cc(C(F)(F)F)cc2Cl)c1N (centres unmarked) [Ethiprole (.1%)] |  |  |  |  |  |  | Average % Knockdown & Mortality after 4 hr [3, 5]: 3%; Average % Knockdown & Mortality after 6 hr [3, 5]: 15%; Average % Knockdown & Mortality after 24 hr [3, 5]: 25%; Average % Knockdown & Mortality after 2 hr [3, 6]: 3% |
